Experimental data as given in ChEMBL document CHEMBL4732094, “Synthesis of some new benzoxazole derivatives and investigation of their anticancer activities” (Eur J Med Chem, 2021).

Legend:
C6 [1] = test: Inhibition of DNA synthesis in rat C6 cells assessed as reduction in cell proliferation measured after 24 to 48 hrs by BrdU proliferation assay; type: functional, cell-based; conditions: time 24-48 hrs
[2] = Selectivity index, ratio of IC50 for cytotoxicity against mouse NIH3T3 cells to IC50 for cytotoxicity against human HT-29 cells; type: toxicity, cell-based; conditions: NIH3T3 cells versus HT-29 cells, read-out: Ratio IC50
[3] = Selectivity index, ratio of IC50 for cytotoxicity against mouse NIH3T3 cells to IC50 for cytotoxicity against human A549 cells; type: toxicity, cell-based; conditions: NIH3T3 cells versus A549 cells, read-out: Ratio IC50
[4] = Selectivity index, ratio of IC50 for cytotoxicity against mouse NIH3T3 cells to IC50 for cytotoxicity against rat C6 cells; type: toxicity, cell-based; conditions: NIH3T3 cells versus C6 cells, read-out: Ratio IC50
[5] = Selectivity index, ratio of IC50 for cytotoxicity against mouse NIH3T3 cells to IC50 for cytotoxicity against human MCF7 cells; type: toxicity, cell-based; conditions: NIH3T3 cells versus MCF7 cells, read-out: Ratio IC50
NIH3T3 = test: Cytotoxicity against mouse NIH3T3 cells assessed as cell viability measured after 24 hrs by MTT assay; type: cell-based; conditions: NIH3T3, 24 h
MCF7 [6] = test: Cytotoxicity against human MCF7 cells assessed as cell viability measured after 24 hrs by MTT assay; type: functional, cell-based; conditions: MCF7, 24 h
C6 [7] = test: Cytotoxicity against rat C6 cells assessed as cell viability measured after 24 hrs by MTT assay; type: functional, cell-based; conditions: C6, 24 h
HepG2 [8] = test: Cytotoxicity against human HepG2 cells assessed as cell viability measured after 24 hrs by MTT assay; type: functional, cell-based; conditions: HepG2, 24 h
C6 [9] = test: Induction of apoptosis in rat C6 cells assessed as apoptotic cells at IC50 concentration measured after 24 hrs by Annexin V-FITC/PI staining based flow cytometry method relative to control; type: functional
A549 = test: Cytotoxicity against human A549 cells assessed as cell viability measured after 24 hrs by MTT assay; type: functional, cell-based; conditions: A549, 24 h
[10] = Selectivity index, ratio of IC50 for cytotoxicity against mouse NIH3T3 cells to IC50 for cytotoxicity against human HepG2 cells; type: toxicity, cell-based; conditions: NIH3T3 cells versus HepG2 cells, read-out: Ratio IC50
HT-29 [11] = test: Cytotoxicity against human HT-29 cells assessed as cell viability measured after 24 hrs by MTT assay; type: functional, cell-based; conditions: HT-29, 24 h
HT-29 [12] = test: Inhibition of DNA synthesis in human HT-29 cells assessed as reduction in cell proliferation measured after 24 to 48 hrs by BrdU proliferation assay; type: functional, cell-based; conditions: time 24-48 hrs
HT-29 [13] = test: Induction of apoptosis in human HT-29 cells assessed as late apoptotic cells at IC50 concentration measured after 24 hrs by Annexin V-FITC/PI staining based flow cytometry method (reference value: 1.5%); type: functional
HT-29 [14] = test: Induction of apoptosis in human HT-29 cells assessed as viable cells at IC50 concentration measured after 24 hrs by Annexin V-FITC/PI staining based flow cytometry method (reference value: 90.3%); type: functional
HT-29 [15] = test: Induction of apoptosis in human HT-29 cells assessed as early apoptotic cells at IC50 concentration measured after 24 hrs by Annexin V-FITC/PI staining based flow cytometry method (reference value: 1.1%); type: functional
HT-29 [16] = test: Induction of apoptosis in human HT-29 cells assessed as necrotic cells at IC50 concentration measured after 24 hrs by Annexin V-FITC/PI staining based flow cytometry method (reference value: 7.2%); type: functional
HepG2 [17] = test: Induction of apoptosis in human HepG2 cells assessed as late apoptotic cells at IC50 concentration measured after 24 hrs by Annexin V-FITC/PI staining based flow cytometry method (reference value: 8.7%); type: functional
HepG2 [18] = test: Induction of apoptosis in human HepG2 cells assessed as necrotic cells at IC50 concentration measured after 24 hrs by Annexin V-FITC/PI staining based flow cytometry method (reference value: 4.6%); type: functional
HepG2 [19] = test: Induction of apoptosis in human HepG2 cells assessed as early apoptotic cells at IC50 concentration measured after 24 hrs by Annexin V-FITC/PI staining based flow cytometry method (reference value: 0.9%); type: functional
MCF7 [20] = test: Inhibition of DNA synthesis in human MCF7 cells assessed as reduction in cell proliferation measured after 24 to 48 hrs by BrdU proliferation assay; type: functional, cell-based; conditions: time 24-48 hrs
MCF7 [21] = test: Induction of apoptosis in human MCF7 cells assessed as late apoptotic cells at IC50 concentration measured after 24 hrs by Annexin V-FITC/PI staining based flow cytometry method (reference value: 1.8%); type: functional
MCF7 [22] = test: Induction of apoptosis in human MCF7 cells assessed as viable cells at IC50 concentration measured after 24 hrs by Annexin V-FITC/PI staining based flow cytometry method (reference value: 94.9%); type: functional
MCF7 [23] = test: Induction of apoptosis in human MCF7 cells assessed as early apoptotic cells at IC50 concentration measured after 24 hrs by Annexin V-FITC/PI staining based flow cytometry method (reference value: 2.2%); type: functional
HepG2 [24] = test: Inhibition of DNA synthesis in human HepG2 cells assessed as reduction in cell proliferation measured after 24 to 48 hrs by BrdU proliferation assay; type: functional, cell-based; conditions: time 24-48 hrs
HepG2 [25] = test: Induction of apoptosis in human HepG2 cells assessed as viable cells at IC50 concentration measured after 24 hrs by Annexin V-FITC/PI staining based flow cytometry method (reference value: 87.8%); type: functional
MCF7 [26] = test: Induction of apoptosis in human MCF7 cells assessed as necrotic cells at IC50 concentration measured after 24 hrs by Annexin V-FITC/PI staining based flow cytometry method (reference value: 1%); type: functional
[27] = Drug metabolism in human HepG2 cells assessed as amine metabolite formation after 24 hrs by LCMS-IT-TOF analysis; type: ADME, cell-based; conditions: hepg2, 24 h
[28] = Drug metabolism in human HepG2 cells assessed as oxidative dehalogenation after 24 hrs by LCMS-IT-TOF analysis; type: ADME, cell-based; conditions: hepg2, 24 h

Row | Compound | inhibition (C6 [1]) | selectivity ratio [2] | selectivity ratio [3] | selectivity ratio [4] | selectivity ratio [5] | IC50 (NIH3T3) [µM] | IC50 (MCF7 [6]) [µM] | IC50 (C6 [7]) [µM] | IC50 (HepG2 [8]) [µM] | Activity (C6 [9]) [%] | IC50 (A549) [µM] | selectivity ratio [10] | IC50 (HT-29 [11]) [µM] | Activity (HepG2 [17]) [%] | Activity (HepG2 [18]) [%] | Activity (HepG2 [19]) [%] | inhibition (HepG2 [24]) | Activity (HepG2 [25]) [%] | also measured
1 | CN(C)CCN1CCN(CC(=O)Nc2ccc(-c3nc4cc(F)ccc4o3)cc2)CC1 | Dose-dependent effect | 8.79 | 4.33 | 16.4 | 3.46 | 72 | 20.8 | 4.39 | 18.8 | 46 | 16.6 | 3.84 | 8.19 |  |  |  |  |  | 
2 | Cc1ccc2oc(-c3ccc(NC(=O)CN4CCN(CCN(C)C)CC4)cc3)nc2c1 | Dose-dependent effect | 16.2 | 7.9 | 17.8 | 1.22 | 28.9 | 23.7 | 1.63 | 1.27 | 19.3 | 3.66 | 22.8 | 1.79 |  |  |  |  |  | inhibition (HT-29 [12]): Dose-dependent effect; Activity (HT-29 [13]): 8.5%; Activity (HT-29 [14]): 76%; Activity (HT-29 [15]): 15%; Activity (HT-29 [16]): 0.4%
3 | COc1cccc2c1C(=O)c1c(O)c3c(c(O)c1C2=O)C[C@@](O)(C(=O)CO)C[C@@H]3O[C@H]1C[C@H](N)[C@H](O)[C@H](C)O1 [DOXORUBICIN] | Dose-dependent effect |  |  |  |  |  |  | 25.6 | 18 | 35.7 | 10.8 |  | 16.3 | 21.4 | 4.2 | 0.9 | Dose-dependent effect | 73.6 | inhibition (MCF7 [20]): Dose-dependent effect; inhibition (HT-29 [12]): Dose-dependent effect; Activity (HT-29 [13]): 6.6%; Activity (MCF7 [21]): 49.3%; Activity (MCF7 [22]): 42.9%; Activity (HT-29 [14]): 88%; Activity (MCF7 [23]): 1%; Activity (HT-29 [15]): 1.9%; Activity (HT-29 [16]): 3.5%; Activity (MCF7 [26]): 6.8%
4 | CN(C)CCCN1CCN(CC(=O)Nc2ccc(-c3nc4cc(Cl)ccc4o3)cc2)CC1 | Dose-dependent effect | 15.7 | 5.96 | 28.3 | 15.6 | 25.8 | 1.65 | 0.91 | 1.25 | 13.6 | 4.32 | 20.6 | 1.64 | 27.9 | 1.1 | 8.3 | Dose-dependent effect | 62.6 | inhibition (MCF7 [20]): Dose-dependent effect; inhibition (HT-29 [12]): Dose-dependent effect; Activity (HT-29 [13]): 7.4%; Drug metabolism [27]: Metabolite_Detected; Activity (MCF7 [21]): 46.4%; Activity (MCF7 [22]): 25.9%; Activity (HT-29 [14]): 85.5%; Drug metabolism [28]: Metabolite_Detected; Activity (MCF7 [23]): 23.7%; Activity (HT-29 [15]): 6.5%; Activity (HT-29 [16]): 0.6%; Activity (MCF7 [26]): 3.9%
5 | Cc1cc(-c2nc3cc(Cl)ccc3o2)ccc1NC(=O)CN1CCN(CCN(C)C)CC1 |  | 1.45 | 0.79 | 1.43 | 0.49 | 19.2 | 39.3 | 13.5 | 3.88 |  | 24.4 | 4.95 | 13.2 |  |  |  |  |  | 
6 | CN(C)CCCN1CCN(CC(=O)Nc2ccc(-c3nc4cc(F)ccc4o3)cc2)CC1 |  | 8.46 | 1.8 | 0.8 | 1.49 | 21.9 | 14.8 | 27.5 | 9.18 |  | 12.2 | 2.39 | 2.59 |  |  |  |  |  | 
7 | Cc1ccc2oc(-c3ccc(NC(=O)CN4CCN(CCCN(C)C)CC4)c(C)c3)nc2c1 |  | 1.04 | 0.87 | 1.81 | 0.67 | 13.2 | 19.8 | 7.32 | 5.65 |  | 15.3 | 2.34 | 12.7 |  |  |  |  |  | 
8 | Cc1cc(-c2nc3ccccc3o2)ccc1NC(=O)CN1CCN(CCCN(C)C)CC1 |  | 2.17 | 1.52 | 0.86 | 2.97 | 33.5 | 11.3 | 38.7 | 2.16 |  | 22.1 | 15.5 | 15.5 | 16.7 | 0.8 | 5 | Dose-dependent effect | 77.5 | 
9 | Cc1cc(-c2nc3cc(F)ccc3o2)ccc1NC(=O)CCl |  | 0.41 | 0.16 | < 0.11 | < 0.11 | 10.5 | > 100 | > 100 | 16.6 |  | 64.5 | 0.63 | 25.4 |  |  |  |  |  | 
10 | Cc1ccc2oc(-c3ccc(NC(=O)CN4CCN(CCCN(C)C)CC4)cc3)nc2c1 | Dose-dependent effect | 6.79 | 2.5 | 14.6 | 1.38 | 26.4 | 19.1 | 1.81 | 3.16 | 14 | 10.6 | 8.36 | 3.89 |  |  |  |  |  | 
11 | CN(C)CCN1CCN(CC(=O)Nc2ccc(-c3nc4cc(Cl)ccc4o3)cc2)CC1 | Dose-dependent effect | 6.41 | 4.04 | 27.8 | 3.62 | 28.7 | 7.92 | 1.03 | 2.64 | 10.7 | 7.1 | 10.9 | 4.47 | 10.3 | 0.8 | 3.7 | Dose-dependent effect | 85.2 | Drug metabolism [27]: Metabolite_Detected; Drug metabolism [28]: Metabolite_Detected
12 | CN(C)CCN1CCN(CC(=O)Nc2ccc(-c3nc4ccccc4o3)cc2)CC1 |  | 6.74 | 1.92 | 5.11 | 0.6 | 35.8 | 59.4 | 7.01 | 16.3 |  | 18.7 | 2.2 | 5.31 |  |  |  |  |  | 
